Our source for the IC50 values is US20250313548A1 (Actio Biosciences, Inc., priority 2023, published 2025).

Chain of human, KCNT1 (Q5JUK3 whole entry): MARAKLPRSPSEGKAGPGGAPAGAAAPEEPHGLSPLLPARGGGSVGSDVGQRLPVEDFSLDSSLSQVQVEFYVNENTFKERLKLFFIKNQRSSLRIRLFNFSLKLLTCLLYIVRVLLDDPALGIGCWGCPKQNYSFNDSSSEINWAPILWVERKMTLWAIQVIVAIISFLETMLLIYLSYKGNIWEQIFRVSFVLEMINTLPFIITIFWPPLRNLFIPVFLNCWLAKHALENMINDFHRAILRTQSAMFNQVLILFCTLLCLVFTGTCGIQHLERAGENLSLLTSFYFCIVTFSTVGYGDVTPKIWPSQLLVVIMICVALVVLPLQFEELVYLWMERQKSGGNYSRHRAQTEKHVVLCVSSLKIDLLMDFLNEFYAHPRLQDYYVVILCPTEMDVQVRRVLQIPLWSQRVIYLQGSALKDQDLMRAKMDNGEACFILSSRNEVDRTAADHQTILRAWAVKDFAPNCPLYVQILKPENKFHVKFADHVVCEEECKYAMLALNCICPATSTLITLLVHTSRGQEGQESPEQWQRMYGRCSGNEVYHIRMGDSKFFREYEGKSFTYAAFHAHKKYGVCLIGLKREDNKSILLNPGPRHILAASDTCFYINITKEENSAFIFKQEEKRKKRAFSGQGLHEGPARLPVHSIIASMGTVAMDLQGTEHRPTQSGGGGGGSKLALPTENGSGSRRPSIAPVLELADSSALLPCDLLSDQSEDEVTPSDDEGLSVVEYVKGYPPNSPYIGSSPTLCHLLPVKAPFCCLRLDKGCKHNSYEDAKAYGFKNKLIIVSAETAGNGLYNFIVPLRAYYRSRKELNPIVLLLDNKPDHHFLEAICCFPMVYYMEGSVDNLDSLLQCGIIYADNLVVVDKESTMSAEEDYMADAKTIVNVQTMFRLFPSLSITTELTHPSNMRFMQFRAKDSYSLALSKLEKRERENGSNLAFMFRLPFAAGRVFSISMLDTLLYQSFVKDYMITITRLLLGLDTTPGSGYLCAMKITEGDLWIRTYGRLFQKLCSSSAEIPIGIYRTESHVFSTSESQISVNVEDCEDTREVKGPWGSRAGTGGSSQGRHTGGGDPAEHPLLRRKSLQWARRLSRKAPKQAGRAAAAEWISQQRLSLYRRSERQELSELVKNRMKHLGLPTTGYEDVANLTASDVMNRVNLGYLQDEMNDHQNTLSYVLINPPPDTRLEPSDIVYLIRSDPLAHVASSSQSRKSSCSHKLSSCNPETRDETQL

This assay concerns the target human, KCNT1 (Homo sapiens (Human), UniProt Q5JUK3). The experiment in a line: FLIPR Tl/K Flux Assay. It is filed as cell-based. The conditions noted are these: HEK293 cells stably expressing human KCNT1; Tl+ flux stimulated with EC80 of agonist Loxapine. The method, boiled down: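 Inhibition values come from a Hill-equation fit of % inhibition versus log concentration, using normalized fluorescence (Fmax/Fmin) over a 160 s read. The read followed stimulation with Tl+ plus EC80 agonist loxapine after 30 min compound pre-incubation at 25 °C. Cells were KCNT1-expressing HEK293, dye-loaded 1 h in pH 7.4 HEPES/HBSS with 5 mM probenecid.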
For `O=C(N[C@H]1CCCc2nc(-c3cc(C4CC4)ncc3F)oc21)c1cccc(OC(F)(F)F)c1` [Compound I-159a, (S)-N-(2-(2-Cyclopropyl-5-fluoropyridin-4-yl)-4,5,6,7-tetrahydrobenzo[d]oxazol-7-yl)-3-(trifluoromethoxy)benzamide], the IC50 – broadly, the point on the concentration scale where inhibition reaches its midpoint – is below 250 nM.

Regarding `COc1cc(-c2nc3c(o2)CCC[C@@H]3NC(=O)c2cncc(C(F)(F)F)n2)ccn1` [Compound I-211a, (S)-N-(2-(2-Methoxypyridin-4-yl)-4,5,6,7-tetrahydrobenzo[d]oxazol-4-yl)-6-(trifluoromethyl)pyrazine-2-carboxamide], the IC50 was below 250 nM.

Compound `N#Cc1cccc(C(=O)N[C@H]2CCCCn3nc(-c4ccnc(C5CC5)c4)cc32)c1` [Compound I-457a] displayed an IC50 below 250 nM.

In turn, `COc1cc(-c2cc3c(cn2)CCCC3NC(=O)c2cc(C(F)(F)F)nn2C)ccn1` (stereo not shown) [Compound I-393] gave a concentration for half-maximal inhibition (IC50) above 1000 nM.

Take `Cn1nc(C(F)(F)F)cc1C(=O)N[C@H]1CCCn2nc(-c3ccnc(C(C)(C)O)c3)cc21` [Compound I-444a]: the 50% inhibitory concentration (IC50) was 500 to 1000 nM.

Take `O=C(N[C@H]1CCCc2nc(-c3ccnc(C4CC4)c3)oc21)c1cccc(C(F)(F)F)c1` [Compound I-171a, (S)-N-(2-(2-Cyclopropylpyridin-4-yl)-4,5,6,7-tetrahydrobenzo[d]oxazol-7-yl)-3-(trifluoromethyl)benzamide]: the 50% inhibitory concentration (IC50) was below 250 nM.

In turn, `Cn1nc(C(F)(F)F)nc1C(=O)N[C@H]1CCCn2nc(-c3ccnc(C(F)(F)F)c3)cc21` [Compound I-326a, (S)-1-Methyl-3-(trifluoromethyl)-N-(2-(2-(trifluoromethyl)pyridin-4-yl)-4,5,6,7-tetrahydropyrazolo[1,5-a]pyridin-4-yl)-1H-1,2,4-triazole-5-carboxamide] registered an IC50 below 250 nM.

`COc1cc(C(=O)N[C@@H]2CCn3nc(-c4cc(C(F)(F)F)ncc4F)cc32)ccn1` [Compound I-485b] displayed a 50% inhibitory concentration (IC50) below 250 nM.

Compound `Cn1ncc(C(=O)N[C@H]2CCCn3nc(-c4ccnc(C(F)(F)F)c4)cc32)c1Cl` [Compound I-407a] yielded an IC50 of 250 to 500 nM.

The compound `Cn1nc(C(F)(F)F)cc1C(=O)N[C@@H]1CCn2nc(-c3ccnc(C(F)(F)F)c3)cc21` [Compound I-123b, (R)-1-methyl-3-(trifluoromethyl)-N-(2-(2-(trifluoromethyl)pyridin-4-yl)-5,6-dihydro-4H-pyrrolo[1,2-b]pyrazol-4-yl)-1H-pyrazole-5-carboxamide] gave an IC50 of 250 to 500 nM.

Compound `CC(C)(C)CC(=O)N[C@H]1CCc2nn(-c3ccnc(C(F)(F)F)c3)cc21` [Compound I-103a] showed a half-inhibitory concentration (IC50) below 250 nM.

As for `N#Cc1cccc(C(=O)N[C@H]2CCCCc3nn(-c4ccnc(C5CC5)c4)cc32)c1` [Compound I-335a, (S)-3-Cyano-N-(2-(2-cyclopropylpyridin-4-yl)-2,4,5,6,7,8-hexahydrocyclohepta[c]pyrazol-4-yl)benzamide], the IC50 is below 250 nM.

Compound `O=C(N[C@H]1CCCn2nc(-c3ccnc(C(F)(F)F)c3)cc21)c1cnc(C(F)(F)F)cn1` [Compound I-582a, (S)-5-(Trifluoromethyl)-N-(2-(2-(trifluoromethyl)pyridin-4-yl)-4,5,6,7-tetrahydropyrazolo[1,5-a]pyridin-4-yl)pyrazine-2-carboxamide] returned a 50% inhibitory concentration (IC50) below 250 nM.

In turn, `CC(C)n1nc(C(F)(F)F)cc1C(=O)N[C@H]1CCCn2nc(-c3ccnc(C(F)(F)F)c3)cc21` [Compound I-381a] came in with a concentration for half-maximal inhibition (IC50) below 250 nM.

In turn, `Cc1c2c(nn1-c1ccnc(C(F)(F)F)c1)CCC[C@@H]2NC(=O)c1cc(C(F)(F)F)nn1C` [Compound I-90a] displayed an IC50 of 250 to 500 nM.

Regarding `O=C(N[C@H]1CCn2nc(-c3ccnc(C(F)(F)F)c3)cc21)c1cc(Cl)cc(C(F)(F)F)c1` [Compound I-451a], the IC50 was below 250 nM.

For `COc1cc(C(=O)N[C@H]2CCn3nc(-c4ccnc(C(F)(F)F)c4)cc32)ccn1` [Compound I-331a, (S)-2-Methoxy-N-(2-(2-(trifluoromethyl)pyridin-4-yl)-5,6-dihydro-4H-pyrrolo[1,2-b]pyrazol-4-yl)isonicotinamide], the half-maximal inhibitory concentration (IC50) is below 250 nM.

For the compound `COc1cc(-c2nc3c(o2)[C@@H](NC(=O)c2cccc(C(F)(F)F)c2)CCC3)ccn1` [Compound I-168a, (S)-N-(2-(2-Methoxypyridin-4-yl)-4,5,6,7-tetrahydrobenzo[d]oxazol-7-yl)-3-(trifluoromethyl)benzamide], the 50% inhibitory concentration (IC50) was below 250 nM.

`Cn1nc(C(F)(F)F)nc1C(=O)N[C@H]1CCn2nc(-c3cc(C4CC4)ncc3F)cc21` [Compound I-483a, (S)—N-(2-(2-Cyclopropyl-5-fluoropyridin-4-yl)-5,6-dihydro-4H-pyrrolo[1,2-b]pyrazol-4-yl)-1-methyl-3-(trifluoromethyl)-1H-1,2,4-triazole-5-carboxamide] yielded a half-maximal inhibitory concentration (IC50) below 250 nM.

As for `O=C(N[C@H]1CCn2nc(-c3ccnc(C4CC4)c3)cc21)c1cc2cccnn2c1` [Compound I-279a, (S)-N-(2-(2-Cyclopropylpyridin-4-yl)-5,6-dihydro-4H-pyrrolo[1,2-b]pyrazol-4-yl)pyrrolo[1,2-b]pyridazine-6-carboxamide], the half-inhibitory concentration (IC50) was below 250 nM.

In the case of `COc1cc(-c2cc3n(n2)CCCC[C@@H]3NC(=O)c2cc(C(F)(F)F)nn2C)c(F)cn1` [Compound I-212a, (S)-N-(2-(5-Fluoro-2-methoxypyridin-4-yl)-5,6,7,8-tetrahydro-4H-pyrazolo[1,5-a]azepin-4-yl)-1-methyl-3-(trifluoromethyl)-1H-pyrazole-5-carboxamide], the half-maximal inhibitory concentration (IC50) is below 250 nM.

The compound `COc1cc(-n2cc3c(n2)CC[C@@H]3NC(=O)c2cc(C(F)(F)F)nn2C)cc(C)n1` [Compound I-336a, (S)-N-(2-(2-Methoxy-6-methylpyridin-4-yl)-2,4,5,6-tetrahydrocyclopenta[c]pyrazol-4-yl)-1-methyl-3-(trifluoromethyl)-1H-pyrazole-5-carboxamide] registered an IC50 of 500 to 1000 nM.

`O=C(N[C@H]1CCn2nc(-c3ccnc(C4CC4)c3)cc21)c1ccnc(OC(F)(F)F)c1` [Compound I-543a, (S)-N-(2-(2-Cyclopropylpyridin-4-yl)-5,6-dihydro-4H-pyrrolo[1,2-b]pyrazol-4-yl)-2-(trifluoromethoxy)isonicotinamide] yielded an IC50 below 250 nM.

In the case of `N#Cc1cc(C(=O)N[C@H]2CCCn3nc(-c4ccnc(C(F)(F)F)c4)cc32)ccc1F` [Compound I-343a, (S)-3-Cyano-4-fluoro-N-(2-(2-(trifluoromethyl)pyridin-4-yl)-4,5,6,7-tetrahydropyrazolo[1,5-a]pyridin-4-yl)benzamide], the half-inhibitory concentration (IC50) was below 250 nM.

Regarding `CCOc1cc(C(=O)NC2CCCc3nn(-c4ccnc(C(F)(F)F)c4)cc32)n(C)n1` (racemic) [Compound I-22, (rac)-3-Ethoxy-1-methyl-N-(2-(2-(trifluoromethyl)pyridin-4-yl)-4,5,6,7-tetrahydro-2H-indazol-4-yl)-1H-pyrazole-5-carboxamide], the IC50 is 250 to 500 nM.

As to `O=C(N[C@H]1CCn2nc(-c3cc(C(F)(F)F)ncc3F)cc21)C12CC(CF)(C1)C2` [Compound I-540a, (S)-N-(2-(5-Fluoro-2-(trifluoromethyl)pyridin-4-yl)-5,6-dihydro-4H-pyrrolo[1,2-b]pyrazol-4-yl)-3-(fluoromethyl)bicyclo[1.1.1]pentane-1-carboxamide], the IC50 is below 250 nM.

As for `Cc1cc(C(=O)N[C@H]2CCCc3oc(-c4ccnc(C5CC5)c4)nc32)cc(C(F)(F)F)c1` [Compound I-242a, (S)-N-(2-(2-Cyclopropylpyridin-4-yl)-4,5,6,7-tetrahydrobenzo[d]oxazol-4-yl)-3-methyl-5-(trifluoromethyl)benzamide], the IC50 is below 250 nM.

Regarding `N#Cc1cc(F)cc(C(=O)N[C@H]2CCn3nc(-c4ccnc(C5CC5)c4)cc32)c1` [Compound I-300a, (S)-3-Cyano-N-(2-(2-cyclopropylpyridin-4-yl)-5,6-dihydro-4H-pyrrolo[1,2-b]pyrazol-4-yl)-5-fluorobenzamide], the 50% inhibitory concentration (IC50) is below 250 nM.

`Cn1nc(C(F)(F)F)cc1C(=O)NC1CCCc2nn(-c3ccn4nccc4c3)cc21` (racemic) [Compound I-38, (rac)-1-Methyl-N-(2-(pyrazolo[1,5-a]pyridin-5-yl)-4,5,6,7-tetrahydro-2H-indazol-4-yl)-3-(trifluoromethyl)-1H-pyrazole-5-carboxamide]: the IC50 is above 1000 nM.

On to `Cn1nc(C(F)(F)F)cc1C(=O)N[C@@H]1CCCCc2nn(-c3ccnc(C(F)(F)F)c3)cc21` [Compound I-45b, (R)-1-methyl-3-(trifluoromethyl)-N-(2-(2-(trifluoromethyl)pyridin-4-yl)-2,4,5,6,7,8-hexahydrocyclohepta[c]pyrazol-4-yl)-1H-pyrazole-5-carboxamide], for which the IC50 was above 1000 nM.

With `O=C(N[C@@H]1CCc2nn(-c3ccnc(C(F)(F)F)c3)cc21)C1CCC(F)(F)CC1` [Compound I-106b], the IC50 is above 1000 nM.

With `CC(C)(O)c1cc(F)cc(C(=O)N[C@H]2CCc3nn(-c4ccnc(C(F)(F)F)c4)cc32)c1` [Compound I-563a, (S)-3-Fluoro-5-(2-hydroxypropan-2-yl)-N-(2-(2-(trifluoromethyl)pyridin-4-yl)-2,4,5,6-tetrahydrocyclopenta[c]pyrazol-4-yl)benzamide], the IC50 was below 250 nM.

The compound `Cn1nc(C(F)(F)F)cc1C(=O)N[C@H]1CCCn2nc(-c3ccnc(C4(C)CC4)c3)cc21` [Compound I-459a] displayed a half-inhibitory concentration (IC50) below 250 nM.

The compound `Cn1nc(C(F)(F)F)cc1C(=O)NC1CCCCc2nn(-c3ccnc(C(F)(F)F)c3)cc21` (racemic) [Compound I-45, (rac)-1-Methyl-3-(trifluoromethyl)-N-(2-(2-(trifluoromethyl)pyridin-4-yl)-2,4,5,6,7,8-hexahydrocyclohepta[c]pyrazol-4-yl)-1H-pyrazole-5-carboxamide] returned a half-inhibitory concentration (IC50) below 250 nM.
